Source: patent US5118687A, “1-oxa-2-oxo-8-azaspiro(4,5)decane derivatives, pharmaceutical compositions containing them and process for preparing same” (Richter Gedeon Vegyeszeti Gyar Rt., priority 1989, dated 1992)
Where a name gives a salt, the structure may show the parent alone.

Tests used:
[1] = test system: rat brain synaptosomal preparation; experiment: Calcium uptake-inhibiting action: inhibition of potassium-stimulated 45Ca uptake in a rat brain synaptosomal preparation; assay type: biochemical, rat (Wistar); details: rat brain cortex synaptosomes; 60 mM potassium chloride stimulation; 34° C.; incubation 20 seconds; pH 7.4; read-out: IC50 (50% inhibition of the stimulated 45Ca uptake)
Source text: The calcium uptake-inhibiting action of the novel compounds of formula (I) was studied on a rat brain synaptosomal preparation by using the method of P. H. Wu et al. [J. Neurochem. 39, 700 (1982)].
Wistar rats weighting 180 to 200 g were decapitated, their brains were collected in an ice-cold physiological saline solution, the cortex was removed and purified from the white substance. The tissue was homogenized in 10 volumes of 0.32M sucrose solution by using a glass-teflon potter. After centrifuging the homogenate at a rate of 1000×g at 4° C. for 10 minutes, the supernatant was further centrifuged at 10000×g for 20 minutes. The sediment was taken up in a 0.32M sucrose solution in such a way that the protein content of the preparation was adjusted to 20 mg/ml.
The medium (containing 112 mM of sodium chloride, 5 mM of potassium chloride, 1.3 mM of magnesium chloride, 1.2 mM of sodium dihydrogen phosphate, 1.2 mM of calcium chloride, 10 mM of glucose, 20 mM of IRIS buffer) used for the incubation was saturated with carbogen, consisting of 95% by volume of oxygen and 5% by volume of carbon dioxide, up to a pH of 7.4. After adding the test substances to the medium, the synaptosomal preparation was added in an amount corresponding to 1 mg of protein. The incubation was carried out in a final volume of 1 ml. The samples were pre-incubated at 34° C. for 20 minutes. The calcium uptake was begun by using a ^45 Cacl2 solution of 75 nCi activity. Potassium chloride used for investigating the potassium-induced ^45 Ca uptake was employed in 60 mM concentration whereas sodium chloride was added in the same concentration to the control samples. The incubation lasted 20 seconds. The reaction was stopped by 5 ml of a stopping solution containing 120 mM of sodium chloride, 5 mM of potassium chloride, 5 mM of EGTA and 20 mM of TRIS at pH 7.4. The samples were filtered through a Whatman GF/C filter paper and twice washed with 5 ml of a washing solution each, containing 132 mM of sodium chloride, 5 mM of potassium chloride, 1.3 mM of magnesium chloride, 1.2 mM of calcium chloride and 20 mM of IRIS at pH 7.4. (Abbreviations used above: TRIS means tris(hydroxymethyl)aminomethane; EGTA means ethylene glycol bis(β-aminoethyl) ether-N,N,N',N'-tetraacetic acid).
The filter papers were put into glass cuvets, 10 ml of a scintillation liquid each were added, then the radioactivity of the samples was measured in an 1219 Rackbeta (LKB Wallace) liquid scintillation spectrophotometer.
The IC50 values obtained by examination of the concentration/effect correlations are shown in Table I. IC50 value means the molar concentration of the test compounds which causes 50% inhibition of the stimulated ^45 Ca uptake.

[2] = test system: Male Hannover-Wistar rats; experiment: Potassium cyanide test: protective effect against histotoxic hypoxia; assay type: in vivo, rat (Hannover-Wistar); details: Rattus norvegicus, po, read-out: ED50 p.o. (dose protecting half of the treated animals from the hypoxia)
CFLP mice = experiment: Antihypoxic effect: asphyxial action in closed glass cylinder (method of Caillard et al.), survival time; assay type: in vivo, mouse (CFLP); details: 50 mg/kg oral, 60 minutes before test; n = 10; protected = surviving longer by 30% than average survival time of control group (23.5 ± 2.51 sec)
Experimental: The antiphypoxic effect was studied by using two methods. According to the method of C. Caillard et al. [Life Sci. 16, 1607 (1975)] the asphyxial action was determined after starvation for 16 hours on CFLP mice of both sexes weighting 24 to 26 g. Each animal was placed in a separate well-closed glass cylinder. The interval passing from closing the cylinder until the cessation of the last visible respiratory movement was registered as survival time. Animals, surviving longer by 30% than the average survival time of the control group, were considered to be protected. The test substances were administered in an oral dose of 50 mg/kg by 60 minutes before starting the examination.

Row | Structure (SMILES) | IC50 [1] | ED50 [2] | Protected animals (CFLP mice)
1 | C=C1N(CCCC)C(=O)OC12CCN(CCCC(c1ccc(F)cc1)c1ccc(F)cc1)CC2 [Compound 1, 1-Oxa-2-oxo-3-butyl-4-methylene-8-[4,4-bis(4-fluorophenyl)butyl]-3,8-diazaspiro[4,5]decane] | 5.8 µM | 40.9 mg/kg | –
2 | C=C1N(C(C)(C)C)C(=O)OC12CCN(CCCC(c1ccc(F)cc1)c1ccc(F)cc1)CC2 [Compound 2, 1-Oxa-2-oxo-3-tert-butyl-4-methylene-8-[4,4-bis(4-fluorophenyl)butyl]-3,8-diazaspiro[4,5]decane] | 5.9 µM | 39.9 mg/kg | –
3 | C=C1N(c2ccccc2)C(=O)OC12CCN(CCCC(c1ccc(F)cc1)c1ccc(F)cc1)CC2 [Compound 3, 1-Oxa-2-oxo-3-phenyl-4-methylene-8-[4,4-bis(4-fluorophenyl)butyl]-3,8-diazaspiro[4,5]decane] | 2.1 µM | – | –
4 | C=C1N(C2CCCCC2)C(=O)OC12CCN(CCCC(c1ccc(F)cc1)c1ccc(F)cc1)CC2 [Compound 4, 1-Oxa-2-oxo-3-cyclohexyl-4-methylene-8-[4,4-bis(4-fluorophenyl)butyl]-3,8-diazaspiro[4,5]decane] | 5.3 µM | 37.9 mg/kg | –
5 | CCCCN1C(=O)OC2(CCN(CCCC(c3ccc(F)cc3)c3ccc(F)cc3)CC2)C1(C)O (stereo not drawn) [Compound 5, 1-Oxa-2-oxo-3-butyl-4-hydroxy-4-methyl-8-[4,4-bis(4-fluorophenyl)butyl]-3,8-diazaspiro[4,5]decane hydrochloride] | 6.1 µM | – | –
6 | CN1C(=O)OC2(CCN(CCc3ccc(F)cc3)CC2)C1(C)O (stereo not drawn) [Compound 6, 1-Oxa-2-oxo-3,4-dimethyl-4-hydroxy-8-[2-(4-fluorophenyl)ethyl]-3,8-diazaspiro[4,5]decane] | – | – | 60%
7 | CCCN1C(=O)OC2(CCN(CCc3ccc(F)cc3)CC2)C1(C)O (stereo not drawn) [Compound 7, 1-Oxa-2-oxo-3-propyl-4-hydroxy-4-methyl-8-[2-(4-fluorophenyl)ethyl]-3,8-diazaspiro[4,5]decane] | – | – | 40%
8 | CC1(O)N(C2CCCCC2)C(=O)OC12CCN(CCc1ccc(F)cc1)CC2 (stereo not drawn) [Compound 8, 1-Oxa-2-oxo-3-cyclohexyl-4-hydroxy-4-methyl-8-[2-(4-fluorophenyl)ethyl]-3,8-diazaspiro[4,5]decane] | – | – | 60%
9 | CCN1C(=O)OC2(CCN(CCc3ccc(F)cc3)CC2)C1(C)O (stereo not drawn) [Compound 9, 1-Oxa-2-oxo-3-ethyl-4-hydroxy-4-methyl-8-[2-(4-fluorophenyl)ethyl]-3,8-diazaspiro[4,5]decane] | – | – | 60%
